Assay results as given in ChEMBL document CHEMBL1201862, “PubChem BioAssay data set” (2004).
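Following 48 hours of exposure in 96-well plates, responses at five concentrations were used to interpolate endpoints linearly. Here, GI50 denotes the concentration required for 50% inhibition of growth.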 The source made the active and inactive calls. Rule as the data show it: active = GI50 up to about 1.1 µM and inactive = higher.

Tests used:
Experiment in all cases: DTP human tumour cell line panel, 48 h
M14 = test system: M14
SNB-75 = test system: SNB-75
U-251 = test system: U-251
KM12 = test system: KM12
EKVX = test system: EKVX
HOP-62 = test system: HOP-62
MOLT-4 = test system: MOLT-4
HOP-18 = test system: HOP-18
IGROV-1 = test system: IGROV-1
A498 = test system: A498
CCRF-CEM = test system: CCRF-CEM
RXF 393 = test system: RXF 393
NCI-H460 = test system: NCI-H460
SF-539 = test system: SF-539
SW-620 = test system: SW-620
XF498 = test system: XF498
LXFL 529 = test system: LXFL 529
UACC-62 = test system: UACC-62
SK-MEL-28 = test system: SK-MEL-28
HCT-15 = test system: HCT-15
K562 = test system: K562
SNB-78 = test system: SNB-78
HL-60 = test system: HL-60
OVCAR-5 = test system: OVCAR-5
TK-10 = test system: TK-10
786-0 = test system: 786-0
NCI-H522 = test system: NCI-H522
NCI-H226 = test system: NCI-H226
OVCAR-3 = test system: OVCAR-3
LOX IMVI = test system: LOX IMVI
UACC-257 = test system: UACC-257
Malme-3M = test system: Malme-3M
DLD-1 = test system: DLD-1
OVCAR-8 = test system: OVCAR-8
DMS-273 = test system: DMS-273
SF-295 = test system: SF-295
CAKI-1 = test system: CAKI-1
SK-MEL-2 = test system: SK-MEL-2
SK-OV-3 = test system: SK-OV-3
KM-20L2 = test system: KM-20L2
HCT-116 = test system: HCT-116
UO-31 = test system: UO-31
HOP-92 = test system: HOP-92
SN12C = test system: SN12C
ACHN = test system: ACHN
DMS-114 = test system: DMS-114
SK-MEL-5 = test system: SK-MEL-5
SNB-19 = test system: SNB-19
M19-MEL = test system: M19-MEL
HT-29 = test system: HT-29
SF-268 = test system: SF-268
OVCAR-4 = test system: OVCAR-4
HCC 2998 = test system: HCC 2998
NCI-H23 = test system: NCI-H23
SR = test system: SR
A549 = test system: A549
RXF 631 = test system: RXF 631
RPMI-8226 = test system: RPMI-8226
COLO 205 = test system: COLO 205

C#CCNC(=O)N(CC#C)N=O
GI50 (M14): > 100 µM (inactive) | GI50 (SNB-75): > 100 µM (inactive) | GI50 (U-251): > 100 µM (inactive) | GI50 (KM12): > 100 µM (inactive) | GI50 (EKVX): > 100 µM (inactive) | GI50 (HOP-62): > 100 µM (inactive) | GI50 (MOLT-4): 31 µM (inactive) | GI50 (HOP-18): > 100 µM (inactive) | GI50 (IGROV-1): > 100 µM (inactive) | GI50 (A498): > 100 µM (inactive) | GI50 (CCRF-CEM): 37.9 µM (inactive) | GI50 (RXF 393): > 100 µM (inactive) | GI50 (NCI-H460): > 100 µM (inactive) | GI50 (SF-539): > 100 µM (inactive) | GI50 (SW-620): > 100 µM (inactive) | GI50 (XF498): > 100 µM (inactive) | GI50 (LXFL 529): > 100 µM (inactive) | GI50 (UACC-62): > 100 µM (inactive) | GI50 (SK-MEL-28): > 100 µM (inactive) | GI50 (HCT-15): > 100 µM | GI50 (K562): 24.8 µM (inactive) | GI50 (SNB-78): > 100 µM (inactive) | GI50 (HL-60): 25.3 µM (inactive) | GI50 (OVCAR-5): > 100 µM (inactive) | GI50 (TK-10): > 100 µM (inactive) | GI50 (786-0): > 100 µM (inactive) | GI50 (NCI-H522): 19.5 µM (inactive) | GI50 (NCI-H226): > 100 µM (inactive) | GI50 (OVCAR-3): > 100 µM (inactive) | GI50 (LOX IMVI): 38.6 µM (inactive) | GI50 (UACC-257): > 100 µM (inactive) | GI50 (Malme-3M): > 100 µM (inactive) | GI50 (DLD-1): > 100 µM (inactive) | GI50 (OVCAR-8): > 100 µM (inactive) | GI50 (DMS-273): > 100 µM (inactive) | GI50 (SF-295): > 100 µM (inactive) | GI50 (CAKI-1): > 100 µM (inactive) | GI50 (SK-MEL-2): > 100 µM (inactive) | GI50 (SK-OV-3): > 100 µM (inactive) | GI50 (KM-20L2): > 100 µM (inactive) | GI50 (HCT-116): > 100 µM (inactive) | GI50 (UO-31): > 100 µM (inactive) | GI50 (HOP-92): > 100 µM (inactive) | GI50 (SN12C): > 100 µM (inactive) | GI50 (ACHN): > 100 µM (inactive) | GI50 (DMS-114): > 100 µM (inactive) | GI50 (SK-MEL-5): > 100 µM (inactive) | GI50 (SNB-19): > 100 µM (inactive) | GI50 (M19-MEL): > 100 µM (inactive) | GI50 (HT-29): > 100 µM (inactive) | GI50 (SF-268): > 100 µM (inactive) | GI50 (OVCAR-4): > 100 µM (inactive) | GI50 (HCC 2998): > 100 µM (inactive) | GI50 (NCI-H23): > 100 µM (inactive)

c1ccc(-c2nc3sccn3n2)cc1
GI50 (M14): > 100 µM (inactive) | GI50 (U-251): > 100 µM (inactive) | GI50 (KM12): > 100 µM (inactive) | GI50 (EKVX): > 100 µM (inactive) | GI50 (HOP-62): > 100 µM (inactive) | GI50 (MOLT-4): > 100 µM (inactive) | GI50 (IGROV-1): > 100 µM (inactive) | GI50 (SR): > 100 µM (inactive) | GI50 (A498): > 100 µM (inactive) | GI50 (CCRF-CEM): > 100 µM (inactive) | GI50 (RXF 393): > 100 µM (inactive) | GI50 (NCI-H460): > 100 µM (inactive) | GI50 (A549): > 100 µM (inactive) | GI50 (UACC-62): > 100 µM (inactive) | GI50 (SK-MEL-28): > 100 µM (inactive) | GI50 (K562): > 100 µM (inactive) | GI50 (HL-60): > 100 µM (inactive) | GI50 (OVCAR-5): > 100 µM (inactive) | GI50 (TK-10): > 100 µM (inactive) | GI50 (NCI-H522): > 100 µM (inactive) | GI50 (UACC-257): > 100 µM (inactive) | GI50 (RXF 631): > 100 µM (inactive) | GI50 (OVCAR-8): > 100 µM (inactive) | GI50 (DMS-273): > 100 µM (inactive) | GI50 (SF-295): > 100 µM (inactive) | GI50 (SK-OV-3): > 100 µM (inactive) | GI50 (HCT-116): > 100 µM (inactive) | GI50 (UO-31): > 100 µM (inactive) | GI50 (HOP-92): 74.3 µM (inactive) | GI50 (ACHN): > 100 µM (inactive) | GI50 (DMS-114): > 100 µM (inactive) | GI50 (SNB-19): > 100 µM (inactive) | GI50 (M19-MEL): > 100 µM (inactive) | GI50 (HT-29): > 100 µM (inactive) | GI50 (SF-268): > 100 µM (inactive) | GI50 (NCI-H23): > 100 µM (inactive)

COc1cc2nc(NCCCCCNC(=O)c3ccco3)nc(N)c2cc1OC
GI50 (M14): 18.5 µM (inactive) | GI50 (SNB-75): 22.6 µM (inactive) | GI50 (U-251): 20.5 µM (inactive) | GI50 (KM12): 24 µM (inactive) | GI50 (EKVX): > 100 µM (inactive) | GI50 (HOP-62): 24.2 µM (inactive) | GI50 (MOLT-4): 24.8 µM (inactive) | GI50 (HOP-18): > 100 µM (inactive) | GI50 (IGROV-1): 41.1 µM (inactive) | GI50 (A498): 80.2 µM (inactive) | GI50 (CCRF-CEM): 28.5 µM (inactive) | GI50 (RXF 393): 27.6 µM (inactive) | GI50 (NCI-H460): 32 µM (inactive) | GI50 (SF-539): 19.6 µM (inactive) | GI50 (A549): 74.8 µM (inactive) | GI50 (SW-620): 22.5 µM (inactive) | GI50 (UACC-62): 22.2 µM (inactive) | GI50 (SK-MEL-28): 19.2 µM (inactive) | GI50 (HCT-15): > 100 µM | GI50 (K562): 29.1 µM (inactive) | GI50 (SNB-78): 28.2 µM (inactive) | GI50 (HL-60): 21.4 µM (inactive) | GI50 (OVCAR-5): 38.3 µM (inactive) | GI50 (TK-10): 53.1 µM (inactive) | GI50 (786-0): 21.5 µM (inactive) | GI50 (NCI-H522): 25.4 µM (inactive) | GI50 (NCI-H226): 32.7 µM (inactive) | GI50 (OVCAR-3): 24.7 µM (inactive) | GI50 (UACC-257): 19.5 µM (inactive) | GI50 (RPMI-8226): 38 µM (inactive) | GI50 (RXF 631): 26.1 µM (inactive) | GI50 (Malme-3M): 17.4 µM (inactive) | GI50 (OVCAR-8): 33.7 µM (inactive) | GI50 (DMS-273): 49.9 µM (inactive) | GI50 (SF-295): 37.2 µM (inactive) | GI50 (CAKI-1): 42.6 µM (inactive) | GI50 (SK-MEL-2): 19.7 µM (inactive) | GI50 (SK-OV-3): 32.4 µM (inactive) | GI50 (KM-20L2): 32.4 µM (inactive) | GI50 (UO-31): > 100 µM (inactive) | GI50 (HOP-92): 12.2 µM (inactive) | GI50 (SN12C): 39.8 µM (inactive) | GI50 (COLO 205): 18.2 µM (inactive) | GI50 (ACHN): 52.5 µM (inactive) | GI50 (DMS-114): 19.9 µM (inactive) | GI50 (SK-MEL-5): 19.2 µM (inactive) | GI50 (SNB-19): 38.2 µM (inactive) | GI50 (M19-MEL): 23 µM (inactive) | GI50 (HT-29): 33.9 µM (inactive) | GI50 (SF-268): 36.2 µM (inactive) | GI50 (OVCAR-4): 29.3 µM (inactive) | GI50 (HCC 2998): 19.4 µM (inactive) | GI50 (NCI-H23): 87.7 µM (inactive)
